Patent US20250257332A1, “TRUNCATED AND FUSION PROTEINS” (Monash University, priority 2021, published 2025)
“Also recorded” adds a separate entry of the source.

Tests used:
C2C12 myoblasts = assay: C2C12 myoblast proliferation by EdU incorporation; assay type: cell-based, mouse; conditions: for effect on NAMPT-induced increase in myoblast proliferation: co-administration with NAMPT
Protocol: FIG. 2. […] In vitro assay assessing the effects of exogenously introduced factors on C2C12 myoblast proliferation. Proliferation is identified by EdU incorporation. […] Mean+S.D. Two-way ANOVA with Tukey's multiple comparison test. […] Mean±SEM
The mouse muscle cell line C2C12 (Yaffe, D. & Saxel, O. Serial passaging and differentiation of myogenic cells isolated from dystrophic mouse muscle. Nature 270, 725 (1977) were cultured in growth media (Dulbecco's Modified Eagle Medium (4.5 g/l D-Glucose, No L Glutamine, No Sodium Pyruvate (Gibco))+20% Fetal Bovine Solution-One Shot (Gibco)+1% Glut Max 100×(Gibco)). Cells were maintained at 37° C., 5% CO2. Cells at 70% confluence, passage 8 were extracted from T75 flasks with 0.025% Tryspin EDTA (Gibco), neutralised in growth media, spun at 180×g for 5 min to pellet cells. The cells were then resuspended in 10 ml of fresh growth media. 500 μl of cells were plated on a 8-well on cover glass II (Sarstedt) chamber slide at a density of 1×10^3 cells/ml. Cells were left 4 h at 37° C. to re-attach. For drug treatments, the media were supplemented with appropriate doses and cultured for 6 h.

[1] = test system: C2C12 murine myoblast cells; assay: C2C12 cell proliferation, CyQuant Proliferation Assay kit; assay type: cell-based, mouse; conditions: 20 nM, 48 hours, compared with full-length NAMPT
Protocol: FIG. 7. Human NAMPT variants stimulate muscle progenitor proliferation. C2C12 mouse myoblasts were treated with 20 nM full length NAMPT (NAMPT) or NAMPT variants for (NAMPTxxx-xxx, where xxx are amino acid numbers) 48 hours. Quantification of cell proliferation was performed using CyQuant Proliferation Assay kit. […] Box and whiskers denote median with minimum and maximum values. n=4-5 independent experiments per protein. Statistical significance is indicated as exact p-value. […] Significance between conditions were analysed by one-way ANOVA with Tukey post-hoc test.
Human NAMPTcif (hNAMPTcif) and truncated variants of hNAMPTcif were designed by progressively removing N-terminal regions containing positively charged amino acids. Four truncations were produced and numbered T1 to T4. […] Quantification of proliferation was performed using commercially-available CyQuant Proliferation Assay kit (Thermo Fisher Scientific) according to manufacturer's instructions and read using a Synergy H1 plate reader (BioTek). […]
The heparin-binding sequence of placenta growth factor 2 (PIGF2) was fused to the N-terminus of NAMPTcif and produced using a bacterial expression system. […] Quantification of proliferation was performed using commercially-available CyQuant Proliferation Assay kit (Thermo Fisher Scientific) according to manufacturer's instructions and read using a Synergy H1 plate reader (BioTek). […]

[2] = test system: Human primary endothelial cells derived from umbilical vein; assay: Human primary endothelial cell proliferation, CyQuant; assay type: cell-based; conditions: 20 nM; 48 hours
Protocol: FIG. 9. Human NAMPT variants stimulate human endothelial cell proliferation. Human primary endothelial cells derived from umbilical vein were treated with 20 nM full length NAMPT (NAMPT) or NAMPT variants (NAMPTxxx-xxx, where xxx are amino acid numbers) for 48 hours. Quantification of cell proliferation was performed using CyQuant Proliferation Assay kit. […] Treatment with 10% FBS was used as a positive control. Box and whiskers denote median with minimum and maximum values. n=6 independent experiments per protein. Statistical significance is indicated as p-value and determined by one-sample t-test.
Similarly, the inventors next investigated the activity of full length NAMPT, NAMPT402-491 and NAMPT422-491 on human endothelial cell proliferation. Human endothelial cells were derived from umbilical vein and treated with 20 nM full length NAMPT (NAMPT) or NAMPT variants for 48 hours.

[3] = test system: volumetric muscle loss injury of the rectus femoris muscle
Protocol: Injury: male C57BL/6J mice aged between 10-12 weeks were anesthetised and shaved on the hind left leg. A unilateral incision measuring approximately 1 cm was made exposing the underlying fascia. The left hind limb was extended and exteriorised via the incision site by retracting the surrounding tissue. A 3×4 mm full thickness segment of the rectus femoris muscle was removed. Directly after, the injury site was filled with fibrin hydrogel with or without 200 ng or 500 ng of hrNAMPT (1) (hydrogel components; 40 μl, 8 mg/ml human fibrinogen (FIB3, Enzyme Research Laboratories), 4 U/ml bovine thrombin (T4648, Sigma), 5 mM CaCI2, 17 μg/ml of aprotinin (ab146286, Abcam)) which polymerized in the defect. Then, the soft tissue was closed with stitches.
Histology: 10 days after treatment, animals were sacrificed and the wounds were harvested for histological analysis. The defect site and associated proximal and distal segment of the quadriceps muscle (including the rectus femoris, vastus medialis and vastus lateralis) were excised and embedded. Histological analysis was performed on serial paraffin sections (4 μm sections collected passing the central portion of the wound). Multiple sections were stained with Masson's Trichrome (to detect collagen deposition) and the extent of fibrosis (represented by a blue stain) was measured by histomorphometric analysis using ImageJ software (version 1.51 h, National Institutes of Health, USA). To maintain uniformity between samples, the length of the vastus medialis taken at multiple depths ranging from 1.0 mm-3.0 mm serves as a reference between tissue sections to determine the depth of sectioning. For fibrotic quantification, average muscle fibrosis area at each depth was scored and normalised with the area of the rectus femoris. Total area of muscle is determined by calculating the average area of rectus femoris at each depth.
Immune cell profiling and PAX7+ cell quantification with flow cytometry: 4, 6 or 8 days after treatment with either 0.5 μg of hrNAMPT (1) delivered by fibrin hydrogel or control fibrin hydrogel only, mice were euthanised via CO2 asphyxiation. The defect site and associated proximal and distal segment of the quadricep muscles were isolated and placed into 890 μl of complete RPMI (with 10% FBS and 2 mM Glutamax, Life Technologies). The tissue was minced with surgical scissors and 100 μl of 10 mg/ml Collagenase II (Sigma-Aldrich) and 10 μl of 10 mg/ml DNAse I (Biolabs), while 100 μl of dispase II (10 mg/ml) was added into the digestion for PAX7 acquisition. The mixture was vortexed and incubated at 37° C. for 45 min. The collagenase was then inactivated with 500 μl ice-cold PBS, 5% FBS, 5 mM EDTA. The mixture was strained subsequently through 70 μm and 40 μm filters. The cell suspension was further diluted with 1 ml complete RPMI and centrifuged for 10 min at 300×g. The supernatant was discarded and the pellet was resuspended in 250 μl complete RPMI and aliquoted into wells of a 96-well U bottom plate for antibody staining. The cell solutions were centrifuged, supernatant discarded, and washed with PBS. The cell viability stain used was 100 μl of Zombie Aqua (Biolegend) Live-Dead dye diluted in PBS (1:400 dilution) and incubated for 30 min at 4° C. The cells were then blocked with FcX (anti-CD16/32 antibodies, Biolegend, 1 μg/ml) flow cytometry buffer (PBS, 5% FBS). The cells were kept for 20 min at 4° C., washed with flow cytometry buffer and centrifuged. […] For internal Foxp3 staining in the T cell panel, cells were fixed with 100 μl fixation/permeabilisation solution (42080, Biolegend) for 35 min. Then cells were washed and resuspended in 100 μl of flow cytometry buffer with 0.5% Saponin and 5 μg/ml anti-Foxp3 (clone 3G3, #35-5773-U100) for 45 min. Cells were then resuspended in flow cytometry buffer (100 μl) and acquired on the Fortessa x20 (Beckman Coulter). […] Cells were stained for 45 min on ice and washed as described above.

TLR4 = molecular target: T1, TLR4 (Homo sapiens, UniProt O00206); assay: TLR4 signalling assay in HEK-Blue TLR4 reporter cells; assay type: cell-based; conditions: 19 nM; 24 hours; plus 5 ug/ml polymyxin B
T1 construct: host or cells: HEK-Blue TLR4 reporter cell line
T1 sequence (O00206 24-839): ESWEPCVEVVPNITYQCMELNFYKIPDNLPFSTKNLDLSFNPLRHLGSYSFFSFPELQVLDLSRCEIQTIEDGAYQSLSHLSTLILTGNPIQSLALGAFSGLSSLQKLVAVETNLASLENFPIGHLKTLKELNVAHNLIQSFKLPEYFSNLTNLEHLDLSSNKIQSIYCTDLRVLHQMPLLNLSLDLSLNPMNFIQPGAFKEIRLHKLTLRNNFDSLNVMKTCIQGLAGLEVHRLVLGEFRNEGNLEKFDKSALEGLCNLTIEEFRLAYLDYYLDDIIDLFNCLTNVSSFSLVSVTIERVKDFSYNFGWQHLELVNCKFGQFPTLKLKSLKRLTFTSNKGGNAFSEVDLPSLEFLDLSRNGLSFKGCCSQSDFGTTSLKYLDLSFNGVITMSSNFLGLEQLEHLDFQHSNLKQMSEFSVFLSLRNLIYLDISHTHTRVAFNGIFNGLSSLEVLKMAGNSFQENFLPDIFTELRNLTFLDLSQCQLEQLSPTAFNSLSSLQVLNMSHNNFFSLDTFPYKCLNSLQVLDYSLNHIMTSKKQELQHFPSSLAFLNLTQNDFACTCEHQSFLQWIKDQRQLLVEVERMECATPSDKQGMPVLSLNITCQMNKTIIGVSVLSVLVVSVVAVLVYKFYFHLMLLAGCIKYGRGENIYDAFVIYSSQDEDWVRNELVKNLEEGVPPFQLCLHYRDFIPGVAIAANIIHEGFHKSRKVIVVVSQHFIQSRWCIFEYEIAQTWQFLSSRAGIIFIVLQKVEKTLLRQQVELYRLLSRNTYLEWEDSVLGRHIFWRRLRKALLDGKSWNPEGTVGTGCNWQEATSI
T1 sequence (Q9Y6Y9 17-160 partner limits assumed): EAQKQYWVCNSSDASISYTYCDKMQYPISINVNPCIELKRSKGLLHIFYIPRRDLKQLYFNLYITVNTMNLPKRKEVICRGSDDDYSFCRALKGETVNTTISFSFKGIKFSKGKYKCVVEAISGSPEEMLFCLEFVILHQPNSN
Protocol: TLR4 receptor activation was assayed using the HEK-Blue TLR4 reporter cell line (InvivoGen). In this cell line, TLR4 and downstream NFκB signalling induces expression and secretion of alkaline phosphatase that can be quantified via colorimetric assay. HEK-Blue cells were treated for 24 hours with 19 nM of NAMPTcif or PIGF-NAMPTcif plus 5 ug/ml polymyxin B to ensure no TLR4 activation by any trace amounts of endotoxin. TLR4 activity was reported as the equivalent amount of activation by bacterial lipopolysaccharides (LPS), thus a standard curve was generated by serial dilutions of LPS from 0.01 to 20 ng/ml. Detection of alkaline phosphatase activity was performed using a QUANTI-Blue kit (InvivoGen) according to manufacturer's instructions and plates were read using a Synergy H1 plate reader (BioTek). Data were presented as equivalent LPS concentration in ng/ml. A one-way ANOVA with Dunnett's multiple comparisons test was performed to determine statistical significance.

[4] = fibrin hydrogel delivery, 10 days post treatment
[5] = single dose 0.5 μg in fibrin hydrogel at the point of injury, 10 days post treatment, vs fibrin only

N#CN=C(NCCCCCCOc1ccc(Cl)cc1)Nc1ccncc1 [GMX1778]
effect on NAMPT-induced increase in myoblast proliferation (C2C12 myoblasts; EdU incorporation): does not impact its effect on myoblast proliferation; also recorded: did not affect the increased myoblast proliferation | effect on basal level of C2C12 proliferation (C2C12 myoblasts; drug alone, EdU incorporation): no negative effect on the basal level of C2C12 proliferation

O=C(NCC(=O)N1CC[C@H](N[C@H]2CC[C@@](O)(c3ccc(-c4ncccn4)cn3)CC2)C1)c1cccc(C(F)(F)F)c1 [PF-4136309]
effect on NAMPT-induced increase in myoblast proliferation (C2C12 myoblasts; EdU incorporation): does not hinder NAMPT's stimulatory effect on myoblast proliferation

CCCCOCCOc1ccc(-c2ccc3c(c2)/C=C(/C(=O)Nc2ccc([S@@+]([O-])Cc4cncn4CCC)cc2)CCCN3CC(C)C)cc1 [cenicriviroc]
effect on NAMPT-induced increase in myoblast proliferation (C2C12 myoblasts; EdU incorporation): abolishes NAMPT's pro-proliferative response; also recorded: proliferative response was blocked

CCL2/MCP-1: CCR2 ligand
myoblast proliferation (EdU incorporation), factor alone (C2C12 myoblasts; exogenously added factor vs control, listed as mrCCL2): failed to increase proliferative rates beyond that of the control

NAMPT422-471: Truncated hNAMPTcif, residues 422-471 of full length NAMPT, SEQ ID NO: 33 (His-tagged: SEQ ID NO: 34) (NKRSKKGRLSLHRTPAGNFVTLEEGKGDLEEYGQDLLHTVFKNGKVTKS)
cell proliferation, percentage increase vs PBS-treated control [1]: lower cellular proliferation of muscle progenitor cells compared to full-length NAMPT and the other NAMPT variants

NAMPT436-491: Truncated hNAMPTcif, residues 436-491 of full length NAMPT, SEQ ID NO: 10 (His-tagged: SEQ ID NO: 11) (PAGNFVTLEEGKGDLEEYGQDLLHTVFKNGKVTKSYSFDEIRKNAQLNIELEAAHH)
cell proliferation, percentage increase vs PBS-treated control [1]: lower cellular proliferation of muscle progenitor cells compared to full-length NAMPT and the other NAMPT variants

Nicotinamide phosphoribosyltransferase [NAMPT]
endothelial cell proliferation, percentage increase vs PBS-treated control [2]: still stimulated endothelial cell proliferation above negative control | number of centrally nucleated de novo muscle fibres ([3]; 0.5 μg in fibrin, 6 days post treatment, vs fibrin only): significant increase | restoration of muscle architecture ([3]; delivered into the muscle defect via fibrin hydrogel, vs fibrin only control hydrogel): fully restore muscle architecture | fibrotic tissue (Masson's trichrome) [3, 4]: significant reduction in fibrotic tissue | regenerated muscle area (Masson's trichrome) [3, 4]: significantly increased the regenerated muscle area | decrease in average fibrotic area [3, 5]: 34.76±9.32% | increase in average muscle area [3, 5]: 3.276±0.4926 mm^2 | TLR4 activation (equivalent LPS concentration) (TLR4): activates TLR4

maraviroc
effect on NAMPT-induced increase in myoblast proliferation (C2C12 myoblasts; EdU incorporation): abolishes NAMPT's pro-proliferative response; also recorded: proliferative response was blocked
